# Molecular target: human IDO1 (Homo sapiens, UniProt P14902)
# Test: Assessment of human IDO-1 inhibitory activity in HEK cells (human IDO1/HEK293 cells, kynurenine read-out with Ehrlich reagent, absorbance 490 nm)
# Type: cell-based
# Set-up: expressed in transfected cells
# Conditions: HEK Human IDO-1 cellular assay
# Summary of the method: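 HEK293 cells stably expressing human IDO1 were seeded at 10,000 per well in phenol red-free RPMI with 10% FBS, treated with compound for 20 h at 37 °C. Kynurenine was measured after TCA (0.2% final) and 30 min at 50 °C, using Ehrlich reagent, A490. IC50 normalised to DMSO (0%) and 500 nM reference standard (100%).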
# human IDO1, sequence (P14902 whole entry): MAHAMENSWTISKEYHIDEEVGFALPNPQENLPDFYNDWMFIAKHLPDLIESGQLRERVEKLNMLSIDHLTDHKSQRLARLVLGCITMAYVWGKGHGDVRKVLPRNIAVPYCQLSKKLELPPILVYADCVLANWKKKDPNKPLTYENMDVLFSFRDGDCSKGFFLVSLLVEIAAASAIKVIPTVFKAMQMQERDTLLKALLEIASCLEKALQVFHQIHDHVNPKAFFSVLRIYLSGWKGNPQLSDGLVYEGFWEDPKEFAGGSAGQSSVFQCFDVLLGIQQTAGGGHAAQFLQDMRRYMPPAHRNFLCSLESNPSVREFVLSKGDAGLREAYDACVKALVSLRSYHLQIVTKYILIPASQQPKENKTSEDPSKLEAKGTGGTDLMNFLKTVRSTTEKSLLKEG
row,Compound,IC50 [nM]
1,"CCC(CC(=O)O)c1cc(NC(=O)Nc2ccc3c(c2)OCO3)c(N(CC(C)C)C2CCCCC2)cc1F (single isomer, unassigned) [Example 1111, 3-(5-(3-(Benzo[d][1,3]dioxol-5-yl)ureido)-4-(cyclohexyl(isobutyl)amino)-2-fluorophenyl)pentanoic acid]",< 5
2,"CCC(CC(=O)O)c1cc(NC(=O)Nc2cc(C)no2)c(N(CC(C)C)C2CCCCC2)cc1F (single isomer, unassigned) [Example 1114, 3-(4-(Cyclohexyl(isobutyl)amino)-2-fluoro-5-(3-(3-methylisoxazol-5-yl)ureido)phenyl)pentanoic acid]",< 5
3,"CCOc1ccc(NC(=O)Nc2cc(C(CC)CC(=O)O)c(F)cc2N(CC(C)C)C2CCCCC2)c(F)c1 (single isomer, unassigned) [Example 1117, 3-(4-(Cyclohexyl(isobutyl)amino)-5-(3-(4-ethoxy-2-fluorophenyl)ureido)-2-fluorophenyl)pentanoic acid]",< 5
4,"CCC(CC(=O)O)c1cc(NC(=O)Nc2ccc(C)cc2F)c(N(CC(C)C)C2CCCCC2)cc1F (single isomer, unassigned) [Example 1120, 3-(4-(Cyclohexyl(isobutyl)amino)-2-fluoro-5-(3-(2-fluoro-4-methylphenyl)ureido)phenyl)pentanoic acid]",< 5
5,"CCC(CC(=O)O)c1cc(NC(=O)Nc2cncnc2)c(N(CC(C)C)C2CCCCC2)cc1F (single isomer, unassigned) [Example 1123, 3-(4-(cyclohexyl(isobutyl)amino)-2-fluoro-5-(3-(pyrimidin-5-yl)ureido)phenyl)pentanoic acid]",< 5
6,"CCC(CC(=O)O)c1cc(NC(=O)Nc2cnc(C)nc2)c(N(CC(C)C)C2CCCCC2)cc1F (single isomer, unassigned) [Example 1126, 3-(4-(Cyclohexyl(isobutyl)amino)-2-fluoro-5-(3-(2-methylpyrimidin-5-yl)ureido)phenyl)pentanoic acid]",< 5
7,"CCC(CC(=O)O)c1cc(NC(=O)Nc2ccc(C)cc2)c(N(CC(C)C)CC(C)C)cc1F (single isomer, unassigned) [Example 1129, 3-(4-(Diisobutylamino)-2-fluoro-5-(3-(p-tolyl)ureido)phenyl)pentanoic acid]",< 5
8,"CCOc1ccc(NC(=O)Nc2cc(C(CC)CC(=O)O)c(F)cc2N(CC(C)C)CC(C)C)cc1 (single isomer, unassigned) [Example 1132, 3-(4-(Diisobutylamino)-5-(3-(4-ethoxyphenyl)ureido)-2-fluorophenyl)pentanoic acid]",< 5
9,"CCC(CC(=O)O)c1cc(NC(=O)Nc2ccc3c(c2)OCO3)c(N(CC(C)C)CC(C)C)cc1F (single isomer, unassigned) [Example 1135, 3-(5-(3-(Benzo[d][1,3]dioxol-5-yl)ureido)-4-(diisobutylamino)-2-fluorophenyl)pentanoic acid]",< 5
10,"CCOc1ccc(NC(=O)Nc2cc(C(CC)CC(=O)O)c(F)cc2N(CC(C)C)CC(C)C)c(F)c1 (single isomer, unassigned) [Example 1138, 3-(4-(Diisobutylamino)-5-(3-(4-ethoxy-2-fluorophenyl)ureido)-2-fluorophenyl)pentanoic acid]",< 5
11,"CCC(CC(=O)O)c1cc(NC(=O)Nc2cnc(OC)nc2)c(N(CC(C)C)CC(C)C)cc1F (single isomer, unassigned) [Example 1141, 3-(4-(Diisobutylamino)-2-fluoro-5-(3-(2-methoxypyrimidin-5-yl)ureido)phenyl)pentanoic acid]",< 5
12,"CCC(CC(=O)O)c1ccc(N2CCC[C@@H]2COC)c(NC(=O)Cc2ccc(C)cc2)c1 (single isomer, unassigned) [Example 1144]",> 50
13,"COCC(CC(=O)O)c1cc(F)c(N(CC(C)C)C2CCCCC2)c(NC(=O)Nc2ccc(OC)cc2F)c1 (single isomer, unassigned) [Example 1152, 3-(4-(Cyclohexyl(isobutyl)amino)-3-fluoro-5-(3-(2-fluoro-4-methoxyphenyl)ureido)phenyl)-4-methoxybutanoic acid]",< 5
14,"CCOc1ccc(NC(=O)Nc2cc(C(COC)CC(=O)O)cc(F)c2N(CC(C)C)C2CCCCC2)cc1 (single isomer, unassigned) [Example 1153, 3-(4-(cyclohexyl(isobutyl)amino)-3-(3-(4-ethoxyphenyl)ureido)-5-fluorophenyl)-4-methoxybutanoic acid]",< 50

# Now from value to compound:
row,IC50 [nM],Compound
1,< 50,"COCC(CC(=O)O)c1cc(F)c(N(CC(C)C)C2CCCCC2)c(NC(=O)Nc2ccc(OC(F)(F)F)cc2)c1 (single isomer, unassigned) [Example 1154, 3-(4-(cyclohexyl(isobutyl)amino)-3-fluoro-5-(3-(4-(trifluoromethoxy)phenyl)ureido)phenyl)-4-methoxybutanoic acid]"
2,< 5,"COCC(CC(=O)O)c1cc(F)c(N(CC(C)C)C2CCCCC2)c(NC(=O)Nc2ccc(C)cc2)c1 (single isomer, unassigned) [Example 1155, 3-(4-(cyclohexyl(isobutyl)amino)-3-fluoro-5-(3-(p-tolyl)ureido)phenyl)-4-methoxybutanoic acid]"
3,< 5,"COCC(CC(=O)O)c1cc(F)c(N(CC(C)C)C2CCCCC2)c(NC(=O)Nc2ccc(Cl)cc2F)c1 (single isomer, unassigned) [Example 1156, 3-(3-(3-(4-chloro-2-fluorophenyl)ureido)-4-(cyclohexyl(isobutyl)amino)-5-fluorophenyl)-4-methoxybutanoic acid]"
4,< 5,"CCOc1ccc(NC(=O)Nc2cc(C(COC)CC(=O)O)cc(F)c2N(CC(C)C)C2CCCCC2)c(F)c1 (single isomer, unassigned) [Example 1157, 3-(4-(cyclohexyl(isobutyl)amino)-3-(3-(4-ethoxy-2-fluorophenyl)ureido)-5-fluorophenyl)-4-methoxybutanoic acid]"
5,< 50,"COCC(CC(=O)O)c1cc(F)c(N(CC(C)C)C2CCCCC2)c(NC(=O)Nc2cc(C)on2)c1 (single isomer, unassigned) [Example 1158, 3-(4-(cyclohexyl(isobutyl)amino)-3-fluoro-5-(3-(5-methylisoxazol-3-yl)ureido)phenyl)-4-methoxybutanoic acid]"
6,< 5,"CCOc1ccc(NC(=O)Nc2cc(C(COC)CC(=O)O)cc(F)c2N(CC(C)C)C2CCCCC2)cc1 (single isomer, unassigned) [Example 1160, 3-(4-(cyclohexyl(isobutyl)amino)-3-(3-(4-ethoxyphenyl)ureido)-5-fluorophenyl)-4-methoxybutanoic acid]"
7,< 5,"COCC(CC(=O)O)c1cc(F)c(N(CC(C)C)C2CCCCC2)c(NC(=O)Nc2ccc(Cl)cc2)c1 (single isomer, unassigned) [Example 1162, 3-(3-(3-(4-chlorophenyl)ureido)-4-(cyclohexyl(isobutyl)amino)-5-fluorophenyl)-4-methoxybutanoic acid]"
8,< 5,"COCC(CC(=O)O)c1cc(F)c(N(CC(C)C)C2CCCCC2)c(NC(=O)Nc2ccc(OC(F)(F)F)cc2)c1 (single isomer, unassigned) [Example 1163, 3-(4-(cyclohexyl(isobutyl)amino)-3-fluoro-5-(3-(4-(trifluoromethoxy)phenyl)ureido)phenyl)-4-methoxybutanoic acid]"
9,< 5,"COCC(CC(=O)O)c1cc(F)c(N(CC(C)C)C2CCCCC2)c(NC(=O)Nc2cc(C)on2)c1 (single isomer, unassigned) [Example 1167, 3-(4-(cyclohexyl(isobutyl)amino)-3-fluoro-5-(3-(5-methylisoxazol-3-yl)ureido)phenyl)-4-methoxybutanoic acid]"
10,< 50,"CCOc1ccc(CC(=O)Nc2cc(C(COC)CC(=O)O)cc(F)c2N(CC(C)C)C2CCCCC2)cc1 (single isomer, unassigned) [Example 1168, 3-(4-(cyclohexyl(isobutyl)amino)-3-(2-(4-ethoxyphenyl)acetamido)-5-fluorophenyl)-4-methoxybutanoic acid]"
11,> 50,"COCC(CC(=O)O)c1cc(F)c(N(CC(C)C)C2CCCCC2)c(NC(=O)Cc2cc(C)on2)c1 (single isomer, unassigned) [Example 1169, 3-(4-(cyclohexyl(isobutyl)amino)-3-fluoro-5-(2-(5-methylisoxazol-3-yl)acetamido)phenyl)-4-methoxybutanoic acid]"
12,< 50,"COCC(CC(=O)O)c1cc(F)c(N(CC(C)C)C2CCCCC2)c(NC(=O)Cc2ccc(C)cc2)c1 (single isomer, unassigned) [Example 1170, 3-(4-(cyclohexyl(isobutyl)amino)-3-fluoro-5-(2-(p-tolyl)acetamido)phenyl)-4-methoxybutanoic acid]"
13,< 50,"COCC(CC(=O)O)c1cc(F)c(N(CC(C)C)C2CCCCC2)c(NC(=O)Cc2ccc(Cl)cc2F)c1 (single isomer, unassigned) [Example 1172, 3-(3-(2-(4-chloro-2-fluorophenyl)acetamido)-4-(cyclohexyl(isobutyl)amino)-5-fluorophenyl)-4-methoxybutanoic acid]"
14,< 5,"COCC(CC(=O)O)c1cc(F)c(N(CC(C)C)CC(C)C)c(NC(=O)Nc2ccc(OC)cc2F)c1 (single isomer, unassigned) [Example 1176, 3-(4-(Diisobutylamino)-3-fluoro-5-(3-(2-fluoro-4-methoxyphenyl)ureido)phenyl)-4-methoxybutanoic acid]"
15,< 50,"COCC(CC(=O)O)c1cc(F)c(N(CC(C)C)CC(C)C)c(NC(=O)Cc2ccc(C)cc2)c1 (single isomer, unassigned) [Example 1177, 3-(4-(Diisobutylamino)-3-fluoro-5-(2-(p-tolyl)acetamido)phenyl)-4-methoxybutanoic acid]"
16,< 50,"CCOc1ccc(NC(=O)Nc2cc(C(COC)CC(=O)O)cc(F)c2N(CC(C)C)CC(C)C)c(F)c1 (single isomer, unassigned) [Example 1178, 3-(4-(Diisobutylamino)-3-(3-(4-ethoxy-2-fluorophenyl)ureido)-5-fluorophenyl)-4-methoxybutanoic acid]"
